Columns and labels:
NPY Y2 receptor [1] = molecular target: T1, NPY Y2 receptor (Homo sapiens, UniProt P49146); assay: Neuropeptide Y2 pKB assay (FLIPR, KAN-Ts cells stably expressing chimeric G proteins); type: cell-based; details: apparent pKB, FLIPR calcium, KAN-Ts cells with chimeric G proteins; modified Cheng-Prusoff correction
T1 construct: endogenous in cells; host or cells: KAN-Ts cells (membrane preparation)
T1 sequence (P49146 1-381): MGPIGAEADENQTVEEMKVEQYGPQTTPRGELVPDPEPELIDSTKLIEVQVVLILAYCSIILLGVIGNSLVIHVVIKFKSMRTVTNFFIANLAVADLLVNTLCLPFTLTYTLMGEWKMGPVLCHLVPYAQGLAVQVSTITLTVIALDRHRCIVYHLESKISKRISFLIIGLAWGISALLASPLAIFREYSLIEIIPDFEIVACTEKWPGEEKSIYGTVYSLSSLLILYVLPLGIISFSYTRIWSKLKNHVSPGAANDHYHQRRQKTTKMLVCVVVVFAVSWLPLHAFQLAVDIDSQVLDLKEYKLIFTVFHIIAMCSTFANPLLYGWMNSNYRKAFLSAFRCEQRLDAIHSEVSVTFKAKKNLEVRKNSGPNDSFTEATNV
Method: The assay was performed using the fluorimetric imaging plate reader (FLIPR) format as described in Dautzenberg, F. M., Biochemical Pharmacology 2005, 69, 1493.
KAN-Ts cells stably expressing chimeric G proteins were seeded at a density of 100,000 cells into poly-d-lysine coated 384-well blackwall, clear-bottom microtiter plates (Corning, N.Y.). One day later, the medium was removed and 50 μl loading medium DMEM high glucose, without serum, supplemented with 10 mM HEPES-acid, 0.1% BSA, 5 mM probenecid and 2 μM Fluo-3AM was added. Cells were loaded for 1 h at 37° C., washed twice with 50 μl assay buffer (5 mM HEPES-acid, 140 mM NaCl, 1 mM MgCl2, 5 mM KCl, 10 mM glucose) and then 30 μl assay buffer was added. Cells were further pre-incubated at room temperature before adding agonists or agonists plus antagonists in 20 μl assay buffer and then measured on a T-channel fluorometric imaging plate reader (FLIPR, Molecular Devices, Sunnyvale, Calif.). Antagonistic potency values were converted to apparent pKB values using a modified Cheng-Prusoff correction. Apparent pKB was calculated as pKB=−log IC50/1+[conc agonist/EC50].

NPY Y2 receptor [2] = molecular target: T1, NPY Y2 receptor; assay: Neuropeptide Y2 radioligand binding assay ([125I]PYY, KAN-Ts cell membranes); details: membranes of KAN-Ts cells endogenously expressing Y2 receptors; [125I]PYY 80 pM; 1 h at rt; read-out: IC50 (μM), NPY Y2 binding
Procedure, shortened: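 Membranes from KAN-Ts cells (endogenous Y2) incubated 1 h at rt with 80 pM [125I]PYY ± compound in HEPES/NaCl binding buffer, then filtered and counted. Nonspecific binding defined with […]. IC50 from sigmoidal fits; apparent K = IC50/(1+C/KD).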

SMILES | Kb (NPY Y2 receptor [1]) [µM] | IC50 (NPY Y2 receptor [2]) [µM]
CCN(CC)C(=O)C(c1ccccc1)N1CCN(c2ccc(-c3noc(C)n3)cc2F)CC1 (centres unmarked) [Compound 67, N,N-Diethyl-2-{4-[2-fluoro-4-(5-methyl-[1,2,4]oxadiazol-3-yl)-phenyl]-piperazin-1-yl}-2-phenyl-acetamide] | 0.2 | 0.18
CCN(CC)C(=O)C(c1ccccc1)N1CCN(c2ccc(-c3noc(C(C)C)n3)cc2F)CC1 (centres unmarked) [Compound 69, N,N-Diethyl-2-{4-[2-fluoro-4-(5-isopropyl-[1,2,4]oxadiazol-3-yl)-phenyl]-piperazin-1-yl}-2-phenyl-acetamide] | 0.0501 | 0.13
CCN(CC)C(=O)C(c1ccccc1)N1CCN(c2ccc(-c3nc(C)no3)cc2F)CC1 (centres unmarked) [Compound 119, N,N-Diethyl-2-{4-[2-fluoro-4-(3-methyl-[1,2,4]oxadiazol-5-yl)-phenyl]-piperazin-1-yl}-2-phenyl-acetamide] | 0.0891 | 0.085
CCN(CC)C(=O)C(c1ccccc1)N1CCN(c2ccc(-c3nc(C)no3)cc2Br)CC1 (centres unmarked) [Compound 203, 2-{4-[2-Bromo-4-(3-methyl-[1,2,4]oxadiazol-5-yl)-phenyl]-piperazin-1-yl}-N,N-diethyl-2-phenyl-acetamide] | 0.2 | 0.15
CCN(CC)C(=O)C(c1ccccc1)N1CCN(c2ccc(-c3nc(C)no3)cc2C#N)CC1 (centres unmarked) [Compound 217, 2-{4-[2-Cyano-4-(3-methyl-[1,2,4]oxadiazol-5-yl)-phenyl]-piperazin-1-yl}-N,N-diethyl-2-phenyl-acetamide] | 0.0234 | 0.023
CCN(CC)C(=O)C(c1ccccc1)N1CCN(c2ccc(-c3nc(C(C)C)no3)cc2C#N)CC1 (centres unmarked) [Compound 218, 2-{4-[2-Cyano-4-(3-isopropyl-[1,2,4]oxadiazol-5-yl)-phenyl]-piperazin-1-yl}-N,N-diethyl-2-phenyl-acetamide] | 0.0126 | 0.011
CCN(CC)C(=O)C(c1cccc(F)c1)N1CCN(c2ccc(-c3nc(C)no3)cc2C#N)CC1 (centres unmarked) [Compound 263, 2-{4-[2-Cyano-4-(3-methyl-[1,2,4]oxadiazol-5-yl)-phenyl]-piperazin-1-yl}-N,N-diethyl-2-(3-fluoro-phenyl)-acetamide] | 0.02 | 0.035
